Results as given in US12325706B2, “Polymorphic form of sepiapterin” (PTC Therapeutics MP, Inc., priority 2016, dated 2025).
Values after ≈ are worked out from the molar mass of the structure shown. “Also recorded” adds a separate entry of the source.

Columns and labels:
Format in all cases: physicochemical
[1] = Approximate solubility of starting material at RT
[2] = Storage stability of sepiapterin polymorph forms, HPLC purity; set-up: Impurity RRT 1.06 (HPLC) / Impurity RRT 1.08 (HPLC) / Impurity RRT 1.17 (HPLC) / Impurity RRT 1.21 (HPLC) / Impurity RRT 1.25 (HPLC) / Impurity RRT 0.62 (HPLC) / Impurity RRT 0.89 (HPLC) / Impurity RRT 0.95 (HPLC) / Impurity RRT 0.60 (HPLC): unit not given here; settings: for % of Initial / Purity (area %): 10% RH
Description: (§1) Form A and F samples were placed in chambers with silica gel to remove water (the relative humidity was measured to be ˜10% RH) at different temperatures. Form D samples were placed in chambers with water (relative humidity was estimated to be ˜100% RH) at different temperatures.
(§2) The HPLC purities and XRD patterns were obtained for each of Form A/F/D samples stored at various temperatures.
Samples of sepiapterin free base polymorph Forms D, F, and A were stored at room temperature (RT), 35° C., and 50° C. The samples were analyzed by HPLC at 1 week and 4 week intervals.

[3] = Storage stability of sepiapterin polymorph forms, form change by XRD; settings: 10% RH
Description: as §1, §2

[4] = Stability of crystalline Form A to grinding and sieving (XRPD); settings: mortar and pestle, 140 mesh sieve
Description: A weight loss of 5.3% was observed up to 150° C. on TGA. […] (peak temperature). The starting material contained large particles with size over 100 μm. It was ground and characterized by XRPD, TGA and DSC. […] A weight loss of 1.9% was observed after N2 purging for 30 min to remove the absorbed water, followed by a second-step weight loss of 13.7% from 30° C. to 150° C. on TGA. […] (peak temperature).
Crystalline form A of sepiapterin of the invention was subjected to grinding and sieving process comprising grinding with a mortar and pestle and passing the material through a 140 mesh sieve. […] This process was repeated until all material was passed through the sieve.

[5] = 35° C./10% RH, 1 w, listed as Polymorph A
[6] = 35° C./10% RH, 4 w, listed as Polymorph A
[7] = 50° C./10% RH, 1 w, listed as Polymorph A
[8] = 50° C./10% RH, 4 w, listed as Polymorph A
[9] = RT/10% RH, 1 w, listed as Polymorph A
[10] = RT/10% RH, 4 w, listed as Polymorph A

- solubility ([1]; organic solvent or mixture, 1,4-Dioxane, RT): < 1700 µg/mL
- solubility ([1]; organic solvent or mixture, 2-MeTHF, RT): < 2000 µg/mL
- solubility ([1]; organic solvent or mixture, ACN, RT): < 1700 µg/mL
- solubility ([1]; organic solvent or mixture, Acetone, RT): < 1800 µg/mL
- solubility ([1]; organic solvent or mixture, CHCl3, RT): < 1600 µg/mL
- solubility ([1]; organic solvent or mixture, DCM, RT): < 1500 µg/mL
- solubility ([1]; organic solvent or mixture, DMAc, RT): > 28000 µg/mL
- solubility ([1]; organic solvent or mixture, DMSO, RT): > 34000 µg/mL
- solubility ([1]; organic solvent or mixture, EtOAc, RT): < 2500 µg/mL
- solubility ([1]; organic solvent or mixture, EtOH, RT): < 1500 µg/mL
- solubility ([1]; organic solvent or mixture, IPA, RT): < 1300 µg/mL
- solubility ([1]; organic solvent or mixture, IPAc, RT): < 2700 µg/mL
- solubility ([1]; organic solvent or mixture, MIBK, RT): < 2000 µg/mL
- solubility ([1]; organic solvent or mixture, MTBE, RT): < 2000 µg/mL
- solubility ([1]; organic solvent or mixture, MeOH, RT): 1700 to 3400 µg/mL (≈ 7.17 to 14.3 mM)
- solubility ([1]; organic solvent or mixture, NMP, RT): > 48000 µg/mL
- solubility ([1]; organic solvent or mixture, THF, RT): < 1900 µg/mL
- solubility ([1]; organic solvent or mixture, Toluene, RT): < 2400 µg/mL
- solubility ([1]; organic solvent or mixture, n-Heptane, RT): < 2100 µg/mL
- solubility ([1]; water, H2O, RT): 1600 to 3200 µg/mL (≈ 6.74 to 13.5 mM)
- Impurity RRT 0.62 (HPLC) ([2]; 35° C./10% RH, 1 w): 0.24
- Impurity RRT 0.89 (HPLC) ([2]; 35° C./10% RH, 1 w): <0.05
- Impurity RRT 1.06 (HPLC) ([2]; 35° C./10% RH, 1 w): <0.05
- Impurity RRT 1.21 (HPLC) ([2]; 35° C./10% RH, 1 w): <0.05
- Impurity RRT 1.25 (HPLC) ([2]; 35° C./10% RH, 1 w): <0.05
- Impurity RRT 0.95 (HPLC) [2, 5]: 1.36
- Impurity RRT 1.08 (HPLC) [2, 5]: 0.28
- Impurity RRT 1.17 (HPLC) [2, 5]: 0.16
- Sepiapterin RRT 1.00 (HPLC), amount of sepiapterin [2, 5]: 97.97%
- Impurity RRT 0.62 (HPLC) ([2]; 35° C./10% RH, 4 w): 1.03
- Impurity RRT 0.89 (HPLC) ([2]; 35° C./10% RH, 4 w): <0.05
- Impurity RRT 1.06 (HPLC) ([2]; 35° C./10% RH, 4 w): <0.05
- Impurity RRT 1.08 (HPLC) ([2]; 35° C./10% RH, 4 w): <0.05
- Impurity RRT 1.21 (HPLC) ([2]; 35° C./10% RH, 4 w): <0.05
- Impurity RRT 1.25 (HPLC) ([2]; 35° C./10% RH, 4 w): <0.05
- Impurity RRT 0.95 (HPLC) [2, 6]: 2.70
- Impurity RRT 1.17 (HPLC) [2, 6]: 0.16
- Sepiapterin RRT 1.00 (HPLC), amount of sepiapterin [2, 6]: 96.06%
- Impurity RRT 0.62 (HPLC) ([2]; 50° C./10% RH, 1 w): 0.68
- Impurity RRT 0.89 (HPLC) ([2]; 50° C./10% RH, 1 w): <0.05
- Impurity RRT 1.06 (HPLC) ([2]; 50° C./10% RH, 1 w): 0.45
- Impurity RRT 1.21 (HPLC) ([2]; 50° C./10% RH, 1 w): <0.05
- Impurity RRT 1.25 (HPLC) ([2]; 50° C./10% RH, 1 w): <0.05
- Impurity RRT 0.95 (HPLC) [2, 7]: 3.48
- Impurity RRT 1.08 (HPLC) [2, 7]: 0.08
- Impurity RRT 1.17 (HPLC) [2, 7]: 0.16
- Sepiapterin RRT 1.00 (HPLC), amount of sepiapterin [2, 7]: 95.15%
- Impurity RRT 0.62 (HPLC) ([2]; 50° C./10% RH, 4 w): 2.59
- Impurity RRT 0.89 (HPLC) ([2]; 50° C./10% RH, 4 w): 0.06
- Impurity RRT 1.06 (HPLC) ([2]; 50° C./10% RH, 4 w): <0.05
- Impurity RRT 1.17 (HPLC) ([2]; 50° C./10% RH, 4 w): 0.17
- Impurity RRT 1.21 (HPLC) ([2]; 50° C./10% RH, 4 w): 0.06
- Impurity RRT 1.25 (HPLC) ([2]; 50° C./10% RH, 4 w): 0.11
- Impurity RRT 0.95 (HPLC) [2, 8]: 7.67
- Impurity RRT 1.08 (HPLC) [2, 8]: 0.85
- Sepiapterin RRT 1.00 (HPLC), amount of sepiapterin [2, 8]: 88.49%
- Sepiapterin RRT 1.00 (HPLC), amount of sepiapterin ([2]; 50° C./10% RH, 4 w, listed as polymorph A): 88.49%
- Impurity RRT 0.89 (HPLC) ([2]; Initial): <0.05
- Impurity RRT 1.06 (HPLC) ([2]; Initial): <0.05
- Impurity RRT 1.08 (HPLC) ([2]; Initial): <0.05
- Impurity RRT 1.17 (HPLC) ([2]; Initial): 0.17
- Impurity RRT 1.21 (HPLC) ([2]; Initial): <0.05
- Impurity RRT 1.25 (HPLC) ([2]; Initial): <0.05
- Impurity RRT 0.62 (HPLC) ([2]; Initial, listed as Polymorph A): 0.08
- Impurity RRT 0.95 (HPLC) ([2]; Initial, listed as Polymorph A): 0.42
- Sepiapterin RRT 1.00 (HPLC), amount of sepiapterin ([2]; Initial, listed as Polymorph A): 99.33%
- Sepiapterin RRT 1.00 (HPLC), amount of sepiapterin ([2]; Initial, listed as polymorph A): 99.33%
- Impurity RRT 0.62 (HPLC) ([2]; RT/10% RH, 1 w): 0.16
- Impurity RRT 0.89 (HPLC) ([2]; RT/10% RH, 1 w): <0.05
- Impurity RRT 1.06 (HPLC) ([2]; RT/10% RH, 1 w): <0.05
- Impurity RRT 1.17 (HPLC) ([2]; RT/10% RH, 1 w): 0.16
- Impurity RRT 1.21 (HPLC) ([2]; RT/10% RH, 1 w): <0.05
- Impurity RRT 1.25 (HPLC) ([2]; RT/10% RH, 1 w): <0.05
- Impurity RRT 0.95 (HPLC) [2, 9]: 0.77
- Impurity RRT 1.08 (HPLC) [2, 9]: 0.11
- Sepiapterin RRT 1.00 (HPLC), amount of sepiapterin [2, 9]: 98.80%
- Impurity RRT 0.62 (HPLC) ([2]; RT/10% RH, 4 w): 0.37
- Impurity RRT 0.89 (HPLC) ([2]; RT/10% RH, 4 w): <0.05
- Impurity RRT 1.06 (HPLC) ([2]; RT/10% RH, 4 w): <0.05
- Impurity RRT 1.08 (HPLC) ([2]; RT/10% RH, 4 w): <0.05
- Impurity RRT 1.17 (HPLC) ([2]; RT/10% RH, 4 w): 0.16
- Impurity RRT 1.21 (HPLC) ([2]; RT/10% RH, 4 w): <0.05
- Impurity RRT 1.25 (HPLC) ([2]; RT/10% RH, 4 w): <0.05
- Impurity RRT 0.95 (HPLC) [2, 10]: 1.29
- Sepiapterin RRT 1.00 (HPLC), amount of sepiapterin [2, 10]: 98.18%
- Purity of initial samples by HPLC ([2]; initial, before storage, listed as Form λ): 99.3 area %
- % of Initial ([2]; storage 1 week, 35° C.): 98.6%
- Purity (area %) ([2]; storage 1 week, 35° C.): 98.0 area %
- % of Initial ([2]; storage 1 week, 50° C.): 95.8%
- Purity (area %) ([2]; storage 1 week, 50° C.): 95.2 area %
- % of Initial ([2]; storage 1 week, RT): 99.5%
- Purity (area %) ([2]; storage 1 week, RT): 98.8 area %
- % of Initial ([2]; storage 4 weeks, 35° C.): 96.7%
- Purity (area %) ([2]; storage 4 weeks, 35° C.): 96.1 area %
- % of Initial ([2]; storage 4 weeks, 50° C.): 89.1%
- Purity (area %) ([2]; storage 4 weeks, 50° C.): 88.5 area %
- % of Initial ([2]; storage 4 weeks, RT): 98.8%
- Purity (area %) ([2]; storage 4 weeks, RT): 98.2 area %
- Stability on storage as determined by HPLC, comparison of forms in words ([2]; storage up to 4 weeks at RT, 35° C., 50° C.): significantly less stability
- Form change ([3]; storage 1 week, 35° C.): No
- Form change ([3]; storage 1 week, 50° C.): No
- Form change ([3]; storage 1 week, RT): No
- Form change ([3]; storage 4 weeks, 35° C.): No
- Form change ([3]; storage 4 weeks, 50° C.): No
- Form change ([3]; storage 4 weeks, RT): No
SMILES: C[C@H](O)C(=O)C1=Nc2c(nc(N)[nH]c2=O)NC1 [Form A, sepiapterin]
- Physical form stability to grinding and sieving (XRPD) [4]: no form change was observed after grinding; also recorded: stable to the grinding and sieving process; also recorded: confirms the physical form stability
